US4159328A, “Tetrahydro-1,3,5-thiadiazin-4-one derivative” (Nihon Nohyaku Co., Ltd., priority 1977, dated 1979)
Read-outs that look alike come from different tables or passages of the source.

How the values were obtained:
[1] = tested on: larvae of diamond-back moth (Plutilla xylostella Linn'e); assay: Test Example 10: insecticidal activity against larvae of diamond-back moth; format: in vivo; details: 400 ppm, first-instar larvae, three days; 4320 min
Text: Insecticidal activity against larvae of diamond-back moth (Plutilla xylostella Linn'e). Testing method: A test composition of 400 ppm concentration was sprayed over the pot-planted chinese cabbage in a greenhouse by means of a spray gun. After air-drying, the chinese cabbage was infested with 10 first-instar larvae of diamond-back moth and was left standing in the greenhouse. Three days after the treatment, the dead-and-survival was inspected to calculate the mortality (3-replication test).

[2] = tested on: 5th-instar larvae of brown planthopper; assay: mortality in 7 days after spraying on 5th-instar larvae of brown planthopper; format: in vivo; details: Nilaparvata lugens, 168 h; for mortality at 100 ppm: 5th-instar larvae, 7 days
[3] = tested on: larvae of white-backed planthopper (Sogatella furcifera Horvath); assay: Test Example 2: insecticidal activity against larvae of white-backed planthopper; format: in vivo; details: 168 h
Method in brief: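 Rice seedlings at 1.5-leaf stage were dipped 30 s in 400 ppm test composition, air-dried, and infested with five first-instar larvae. Tubes were held at 25°C, and mortality was scored at 7 days from triplicate tests.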

[4] = tested on: cirrus red mite (Panonychus citri McGregor); assay: Test Example 4: activity to citrus red mite (Rothamstead method); format: in vivo; parameters: concentration or dose not given beside the values; details: two days after treatment, 25° C.; 2880 min
Method: Activity to cirrus red mite (Panonychus citri McGregor).
Testing method: The test was performed by Rothamstead method. A test composition was sprayed by means of a spray gun over grapefruit leaves infested with citrus red mites. After air-drying the grapefruit was left standing in a constant temperature cabinet at 25° C. Two days after the treatment, the number of survived mites was counted to calculate the mortality.

[5] = tested on: larvae of green rice leafhopper (Nephotettix cincticeps Uhler); assay: Test Example 5: activity against larvae of green rice leafhopper; format: in vivo; details: 168 h
Method in brief: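 Rice seedlings at 1.5 leaf age dipped 30 seconds in 400 ppm test composition, air-dried, then infested with five second-instar larvae. Kept at 25° C; mortality scored seven days after treatment, three replicates.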

[6] = tested on: larvae of house mosquito (Culex pipiens pallens Coquillett); assay: Test Example 6: insecticidal activity to larvae of house mosquito; format: in vivo; details: 120 h
Method in brief: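 Twenty first-instar Culex pipiens pallens larvae placed with feed in test composition diluted in deionized water to 10 ppm. Kept at 25 °C, and mortality counted five days after treatment.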

[7] = tested on: larvae of 28-spotted lady beetle (Epilachna vigintioctopunctana Fabricius); assay: Test Example 8: insecticidal activity against larvae of 28-spotted lady beetle; format: in vivo; details: 120 h
Method in brief: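 Tomato leaflets dipped 30 s in 100 ppm test composition, air-dried, and placed in Petri dishes with seven second-instar larvae at 25° C. Mortality scored five days after treatment, two replicates.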

[8] = tested on: larvae of bug. (Togo hemipterus Scott); assay: Test Example 9: insecticidal activity against larvae of bug; format: in vivo; details: 120 h
Method: Insecticidal activity against larvae of bug. (Togo hemipterus Scott).
Test method: Into a glass tube (1.6 cm in internal diameter and 9 cm in length), was added 1 ml of a test composition in 10 ppm concentration just to moisten the absorbent cotton. Five rice seeds and five first-instar larvae were introduced into the glass tube and the tube end was covered with a piece of Japanese paper. The glass tube was kept in a constant temperature cabinet at 25° C. Five days after treatment, the dead-and-survival was inspected to calculate the mortality (3-replication test).

[9] = mammalian acute toxicity; details: mouse, in vivo, mice, male
Method: For example, 2-t-butylimino-3-isopropyl-5-phenyltetrahydro-1,3,5-thiadiazin-4-one (compound No. 145) and 2-t-butylimino-3-isopropyl-5-p-tolyltetrahydro-1,3,5-thiadiazin-4-one (compound No. 318) have LD50 (mice, male) of 10,000 mg/kg or higher. Many other compounds of this invention have LD50 (mice, male) of 5,000 mg/kg or higher.

[10] = tested on: larvae of brown planthopper (Nilaparvata lugens Stahl); assay: Test Example 1: insecticidal activity against larvae of brown planthopper; format: in vivo; details: 120 h, third-instar larvae, 25° C., 5 days after treatment
Method in brief: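 Rice seedlings at 1.5-leaf stage were dipped for 30 s in a 400 ppm test composition, air-dried, and infested with third-instar N. lugens larvae. After holding at 25 °C, mortality was scored 5 or 7 days post-treatment from three replicates.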

[11] = tested on: two-spotted spider mite (Tetranychus urticae Koch); assay: Test Example 3: activity to two-spotted spider mite; format: in vivo; details: 120 h, 1,000 ppm, 5 days after treatment
Text: Activity to two-spotted spider mite (Tetranychus urticae Koch).
Testing method: Two-spotted spider mites were set free on the pot-planted soybean in a greenhouse. On the next day, a test composition of 1,000 ppm concentration was sprayed over the soybean by means of a spray gun. Two days or five days after the treatment, dead-and-survival was inspected to calculate the mortality.

[12] = tested on: adult rust-red-flour beetle (Tribolium castaneum Herbst); assay: Test Example 7: insecticidal activity to adult rust-red-flour beetle; format: in vivo
Method: Insecticidal activity to adult rust-red-flour beetle (Tribolium castaneum Herbst).
Testing method: Into a 9-cm Petri dish covered on the bottom with a piece of filter paper, was introduced 7 ml of a test composition of 400 ppm concentration. Ten adult rust-red flour beetles were released in the Petri dish and left standing in a constant temperature cabinet at 25° C. After 24 hours, the dead-and-survival was inspected to calculate the mortality.

[13] = 400 ppm, adults, 25° C., 24 hours, read-out: Mortality
[14] = 400 ppm, first-instar larvae, 25° C., seven days after treatment, read-out: Mortality
[15] = 400 ppm, second-instar larvae, 25° C., seven days after treatment, read-out: Mortality
[16] = 10 ppm, first-instar larvae, 25° C., five days, read-out: Mortality

Row | SMILES | Mortality [1] [%] | mortality at 10 ppm [6] [%] | mortality at 400 ppm [10] [%] | mortality at 1000 ppm [11] [%] | mortality at 400 ppm [12, 13] [%] | also measured
1 | CC(C)(C)N=C1SCN(c2ccc(Cl)cc2)C(=O)N1C1CCCCC1 [Compound 208] | 80 | – | – | – | – | –
2 | CNC(=O)Oc1cccc2ccccc12 [NAC, 1-naphthyl N-methylcarbamate, reference compound] | – | – | – | – | – | mortality at 200 ppm ([2]; read-out: mortality in 7 days after spraying): 30%
3 | CC(C)N1C(=O)N(c2ccccc2)CSC1=NC(C)(C)C [Compound 145, 2-t-Butylimino-3-isopropyl-5-phenyl-tetrahydro-1,3,5-thiadiazin-4-one] | – | 100 | – | – | – | mortality at 400 ppm [3]: 100%; Mortality [4]: 100%; mortality at 400 ppm [5]: 100%; mortality at 100 ppm [7]: 100%; mortality at 10 ppm [8]: 100%; LD50 [9]: ≥ 10000 mg/kg; mortality at 100 ppm [2]: 100%
4 | CC(C)N1C(=O)N(c2cccc(Cl)c2)CSC1=NC1CCCCC1 [Compound 230] | 100 | – | – | – | – | –
5 | C=CCN1C(=O)N(c2cccc(Cl)c2)CSC1=NC(C)(C)C [Compound 218] | – | 100 | 100 | 100 | 100 | Mortality [4]: 100%
6 | CCCCN1C(=O)N(c2cccc(Cl)c2)CSC1=NC(C)(C)C [Compound 236] | 100 | – | 80 | – | – | –
7 | Cc1cccc(N2CSC(=NC(C)C)N(Cc3ccccc3)C2=O)c1 [Compound 329] | 100 | – | – | – | – | –
8 | Cc1cccc(N2CSC(=NC(C)(C)C)N(C(C)C)C2=O)c1 [Compound 326] | 100 | 100 | 100 | – | – | mortality at 400 ppm [3, 14]: 100%; mortality at 400 ppm [5, 15]: 100%; mortality at 100 ppm [7]: 100%
9 | CC(C)N=C1SCN(c2ccc([N+](=O)[O-])cc2[N+](=O)[O-])C(=O)N1C(C)C [Compound 366] | 100 | – | – | – | – | –
10 | CN=C1SCN(c2cccc(Cl)c2)C(=O)N1C [Compound 213] | – | 100 | 100 | 100 | 100 | –
11 | CC(C)N1C(=O)N(c2cccc(Cl)c2)CSC1=NC(C)(C)CC(C)(C)C [Compound 222] | – | – | 100 | 80 | 100 | mortality at 10 ppm [8, 16]: 100%
12 | COCCN1C(=O)N(c2ccc(Cl)cc2)CSC1=NC(C)C [Compound 207] | 100 | – | – | – | – | –
13 | CC(C)CN1C(=O)N(c2cccc(Cl)c2)CSC1=NC(C)(C)C [Compound 223] | – | 100 | 100 | 70 | 100 | –
14 | CCC(C)N=C1SCN(c2cccc(Cl)c2)C(=O)N1C(C)CC (centres unmarked) [Compound 224] | – | 100 | 100 | 100 | 100 | mortality at 400 ppm [3, 14]: 100%; mortality at 400 ppm [5, 15]: 100%
15 | CCN=C1SCN(c2cccc(C)c2)C(=O)N1CC [Compound 324] | 100 | – | 100 | – | – | –
16 | CCC(C)N=C1SCN(c2cccc(C)c2)C(=O)N1C(C)CC (centres unmarked) [Compound 327] | 100 | 90 | 100 | 100 | – | mortality at 400 ppm [3, 14]: 100%; mortality at 400 ppm [5, 15]: 100%; mortality at 100 ppm [7]: 100%
17 | Cc1ccc(N2CSC(=NC(C)(C)C)N(C(C)C)C2=O)cc1 [Compound 318, 2-t-Butylimino-3-isopropyl-5-(p-tolyl)-tetrahydro-1,3,5-thiadiazin-4-one] | – | 90 | 100 | 100 | – | mortality at 400 ppm [3, 14]: 100%; mortality at 400 ppm [5, 15]: 100%; mortality at 100 ppm [7]: 100%; LD50 [9]: ≥ 10000 mg/kg; mortality at 100 ppm [2]: 100%
18 | CCN1C(=O)N(c2cccc(Cl)c2)CSC1=NC(C)(C)C [Compound 216, 2-t-Butylimino-3-ethyl-5-(m-chlorophenyl)-tetrahydro-1,3,5-thiadiazin-4-one] | – | – | 100 | 70 | 100 | mortality at 10 ppm [8, 16]: 100%
19 | C=CCN1C(=O)N(c2cccc(Cl)c2)CSC1=NCc1ccccc1 [Compound 219] | 80 | – | 100 | 70 | – | Mortality [4]: 100%; mortality at 400 ppm ([12]; 24 h): 100%
20 | C=CCN1C(=O)N(c2cccc(Cl)c2)CSC1=NC(C)C [Compound 217, 2-Isopropylimino-3-allyl-5-(m-chlorophenyl)-tetrahydro-1,3,5-thiadiazin-4-one] | – | – | 100 | 100 | 100 | mortality at 10 ppm [8, 16]: 100%
21 | CCCN1C(=O)N(c2cccc(Cl)c2)CSC1=NC(C)(C)C [Compound 232] | 70 | – | 70 | – | – | –
22 | CCc1ccc(N2CSC(=NC(C)(C)C)N(C(C)C)C2=O)cc1 [Compound 333, 2-t-butylimino-3-isopropyl-5-(p-ethylphenyl)-tetrahydro-1,3,5-thiadiazin-4-one] | 100 | 100 | 100 | – | – | mortality at 400 ppm [3, 14]: 100%; mortality at 400 ppm [5, 15]: 100%
23 | CCc1ccc(N2CSC(=NC)N(C)C2=O)cc1 [Compound 331, 2-methylimino-3-methyl-5-(p-ethylphenyl)-tetrahydro-1,3,5-thiadiazin-4-one] | 100 | – | – | – | – | –
